The record followed here is publication PMC3230400, “Peroxisome Proliferator-Activated Receptor γ Is a Target for Halogenated Analogs of Bisphenol A” (Environmental Health Perspectives, 2011).

Entries after “also recorded” stand apart in the source; their conditions may differ.

What all share (assay type): cell-based
For experiment [1], the target named is T1, PPARγ (Homo sapiens, UniProt P37231).
T1 sequence (P37231 238-505 limits assumed): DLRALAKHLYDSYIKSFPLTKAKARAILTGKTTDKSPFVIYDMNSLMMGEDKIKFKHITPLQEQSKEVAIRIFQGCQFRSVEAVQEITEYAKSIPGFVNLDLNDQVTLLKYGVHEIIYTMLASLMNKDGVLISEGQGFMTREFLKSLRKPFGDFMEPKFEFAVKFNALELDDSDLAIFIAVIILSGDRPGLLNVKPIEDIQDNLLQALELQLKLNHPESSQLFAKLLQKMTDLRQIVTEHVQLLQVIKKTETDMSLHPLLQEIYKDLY
Nature of the experiment: HGELN-PPARγ stable reporter cell luciferase assay. The settings on record: HGELN-PPARγ cells; for activation of PPARγ (luciferase): relative to 100 nM rosiglitazone. As for the experimental part: (§1) Reporter cell lines and stable gene expression assay. […] Briefly, reporter cells were seeded at a density of 20,000 cells/well in 96-well white opaque tissue culture plates and maintained in phenol-red–free Dulbecco’s modiﬁed Eagle’s medium (DMEM) supplemented with 5% dextran-coated, charcoal-treated fetal calf serum. Twenty-four hours later, culture medium was replaced with DMEM containing tested compounds. We performed assays in the absence of serum to avoid ligand capture by serum proteins. Sixteen hours after exposure, we replaced media with media containing 0.3 mM luciferin. Luminescence was measured in intact living cells for 2 sec in a Microbeta Wallac luminometer (PerkinElmer).

For another experiment, the target named is T2, ERα (Homo sapiens, UniProt P03372).
T2 construct: expressed in transfected cells; host or cells: HGELN (HeLa-derived) cells, stably transfected
T2 sequence (P03372 1-595): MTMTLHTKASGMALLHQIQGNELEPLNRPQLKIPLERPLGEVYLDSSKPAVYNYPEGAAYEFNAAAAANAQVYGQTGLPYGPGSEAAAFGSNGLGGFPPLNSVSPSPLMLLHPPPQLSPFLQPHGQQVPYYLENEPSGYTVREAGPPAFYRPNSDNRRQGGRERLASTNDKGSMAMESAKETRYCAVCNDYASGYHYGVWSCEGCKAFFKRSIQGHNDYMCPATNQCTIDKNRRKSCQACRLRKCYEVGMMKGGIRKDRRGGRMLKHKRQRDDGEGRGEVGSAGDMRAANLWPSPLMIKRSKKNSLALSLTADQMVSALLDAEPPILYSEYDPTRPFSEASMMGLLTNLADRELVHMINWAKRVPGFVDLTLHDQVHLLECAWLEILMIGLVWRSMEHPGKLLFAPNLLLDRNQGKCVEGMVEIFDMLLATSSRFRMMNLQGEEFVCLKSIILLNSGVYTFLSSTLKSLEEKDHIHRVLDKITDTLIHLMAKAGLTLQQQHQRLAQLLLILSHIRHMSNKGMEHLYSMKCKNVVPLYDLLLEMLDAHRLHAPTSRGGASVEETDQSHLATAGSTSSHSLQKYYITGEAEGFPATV
The experiment can be described thus: HGELN-ERα stable reporter cell luciferase assay. To be noted: for ranking order of estrogenic potency, ERα: HELN-ERα cell line; for agonistic activity toward ERα (luciferase): HGELN-ERα cells, relative to 10 nM E2; for ERα versus ERβ selectivity: HGELN-ERα vs HGELN-ERβ cells. As for the experimental part: as §1

The next experiment addresses T3, ERβ (Homo sapiens, UniProt Q92731).
T3 construct: expressed in transfected cells; host or cells: HGELN (HeLa-derived) cells, stably transfected
Nature of the experiment: HGELN-ERβ stable reporter cell luciferase assay. The settings on record: for ranking order of estrogenic potency, ERβ: HELN-ERβ cell line; for agonistic activity toward ERβ (luciferase): HGELN-ERβ cells, relative to 10 nM E2. On the procedure: as §1

The subject of another experiment is 3T3L1 preadipocytes. The experiment can be described thus: 3T3L1 preadipocyte differentiation (Oil Red O staining). The settings on record: for induction of adipogenesis (Oil Red O staining): 8-day treatment with 10 μg/mL insulin and ligand, TCBPA and TBBPA at 10 μM. As for the experimental part:
NIH3T3-L1 differentiation. Two-day postconfluent 3T3L1 preadipocytes (a gift from L. Fajas; Institut de Génétique Moléculaire, Montpellier, France) were induced to differentiate by 2-day treatment with a differentiation mixture (10 μg/mL insulin, 1 μM dexamethasone, 0.5 mM isobutylmethylxanthine) followed by 8-day treatment with 10 μg/mL insulin and PPARγ ligands. The medium was replaced every 48 hr. After differentiation, cells were stained with Oil Red O for morphological analyses, or RNA was extracted from the cells using the RNeasy RNA isolation kit (Qiagen, Courtaboeuf, France). For RNA extractions, four independent cultures were performed per condition. Reverse transcription was performed with random hexamers on 1 μg total RNA using SuperScript II reverse transcriptase (Invitrogen), and the reaction was diluted 100 times for amplification. Real-time polymerase chain reaction (PCR) quantification was then performed using SYBR Green technology (LightCycler; Roche Diagnostics, Meylan, France). Results were normalized to two housekeeping genes (18S and 36B4) and quantified using qBase (Roche Diagnostics).
Two-day postconfluent 3T3L1 cells were treated for 8 days with 10 μg/mL insulin with vehicle (0.1% DMSO) or the ligands as indicated. Rosi, rosiglitazone. (A) Entire wells imaged after Oil Red O staining. (B) Quantitative real-time PCR of PPARγ and adipocyte-specific fatty acid–binding protein AP2 expression levels in postconfluent 3T3-L1 cells treated with the ligands for 24 hr. Data were normalized to 18S or 36B4 controls and plotted as average fold induction ± SE (n = 3 per treatment).

The target of experiment [2] is T1, PPARγ. Nature of the experiment: Transient transactivation assay in HeLa cells, GAL4-hPPARγ. To be noted: 10 μM TBBPA, TCBPA, MEHP.
Another experiment has as its system zebrafish PPARγ. Nature of the experiment: Transient transactivation assay in HeLa cells, GAL4-zebrafish PPARγ LBD. To be noted: 10 μM TBBPA, TCBPA, MEHP, 1 μM rosiglitazone.
In experiment [3] the test system is PPARγ target genes (AP2, PPARγ) in 3T3-L1 cells. Nature of the experiment: Real-time PCR of PPARγ target genes in 3T3-L1 cells. For orientation: Real-time PCR tracks product formation cycle by cycle.
Procedure: Two-day postconfluent 3T3L1 preadipocytes (a gift from L. Fajas; Institut de Génétique Moléculaire, Montpellier, France) were induced to differentiate by 2-day treatment with a differentiation mixture (10 μg/mL insulin, 1 μM dexamethasone, 0.5 mM isobutylmethylxanthine) followed by 8-day treatment with 10 μg/mL insulin and PPARγ ligands. […] After differentiation, cells were stained with Oil Red O for morphological analyses, or RNA was extracted from the cells using the RNeasy RNA isolation kit (Qiagen, Courtaboeuf, France). […] Reverse transcription was performed with random hexamers on 1 μg total RNA using SuperScript II reverse transcriptase (Invitrogen), and the reaction was diluted 100 times for amplification. Real-time polymerase chain reaction (PCR) quantification was then performed using SYBR Green technology (LightCycler; Roche Diagnostics, Meylan, France). Results were normalized to two housekeeping genes (18S and 36B4) and quantified using qBase (Roche Diagnostics).
Two-day postconfluent 3T3L1 cells were treated for 8 days with 10 μg/mL insulin with vehicle (0.1% DMSO) or the ligands as indicated. […] (B) Quantitative real-time PCR of PPARγ and adipocyte-specific fatty acid–binding protein AP2 expression levels in postconfluent 3T3-L1 cells treated with the ligands for 24 hr.

T3 sequence (Q92731 whole entry): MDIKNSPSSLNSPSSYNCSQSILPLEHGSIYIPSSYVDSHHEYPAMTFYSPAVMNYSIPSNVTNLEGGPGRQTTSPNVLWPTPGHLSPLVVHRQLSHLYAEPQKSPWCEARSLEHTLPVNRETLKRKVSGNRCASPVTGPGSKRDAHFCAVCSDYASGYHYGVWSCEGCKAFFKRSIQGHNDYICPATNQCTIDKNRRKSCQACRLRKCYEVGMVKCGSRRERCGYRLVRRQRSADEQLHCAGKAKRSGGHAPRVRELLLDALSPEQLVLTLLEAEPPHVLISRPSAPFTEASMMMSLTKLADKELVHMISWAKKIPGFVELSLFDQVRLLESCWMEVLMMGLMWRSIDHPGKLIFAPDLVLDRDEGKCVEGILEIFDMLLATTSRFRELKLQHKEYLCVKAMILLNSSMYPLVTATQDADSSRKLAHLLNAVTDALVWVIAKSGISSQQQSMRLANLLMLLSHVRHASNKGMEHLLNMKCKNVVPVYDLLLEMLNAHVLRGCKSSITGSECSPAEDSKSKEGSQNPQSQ

As for 3,3´,5-tribromoBPA [triBBPA], at PPARγ [1], the “ranking of ability to activate PPARγ” value is “TBBPA = triBBPA > diBBPA >>> monoBBPA” and the “activation of PPARγ (luciferase)” value is given as “highest potency”. Besides, at ERα, the “ranking order of estrogenic potency, ERα” value is on record as “monoBBPA > diBBPA > triBBPA”. Also, the “ranking order of estrogenic potency, ERβ” value on ERβ is on record as “monoBBPA > diBBPA > triBBPA”.
3,3´-dibromoBPA [diBBPA]: the “ranking of ability to activate PPARγ” value at PPARγ [1] was “TBBPA = triBBPA > diBBPA >>> monoBBPA”. Moreover, at ERα, the “ranking order of estrogenic potency, ERα” value was “monoBBPA > diBBPA > triBBPA”; the “agonistic activity toward ERα (luciferase)” value (“agonistic activity toward ERα” below) was “highest transactivation efficiency”; the “ERα versus ERβ selectivity” value is “slight ERα selectivity”. Also, on ERβ, the “ranking order of estrogenic potency, ERβ” value is “monoBBPA > diBBPA > triBBPA”.
As to 3-MonobromoBPA [monoBBPA], the “ranking of ability to activate PPARγ” value on PPARγ [1] is “TBBPA = triBBPA > diBBPA >>> monoBBPA”. Further, at ERα, the “ranking order of estrogenic potency, ERα” value was “monoBBPA > diBBPA > triBBPA”; the “agonistic activity toward ERα” value is on record as “highest transactivation efficiency”; the “ERα versus ERβ selectivity” value is reported as “slight ERα selectivity”. Further, the “ranking order of estrogenic potency, ERβ” value on ERβ is recorded as “monoBBPA > diBBPA > triBBPA”.
Consider `CC(C)(c1ccc(O)cc1)c1ccc(O)cc1` [BPA, bisphenol A], for which the “activation of PPARγ (luciferase)” value on PPARγ [1] was “failed to activate; also recorded: absence of significant interaction”. On ERα, the “agonistic activity toward ERα” value was “almost full agonistic activity; also recorded: highest transactivation efficiency”. Moreover, the “agonistic activity toward ERβ (luciferase)” value (shortened to “agonistic activity toward ERβ”) on ERβ is listed as “almost full agonistic activity”.
In the case of `CC(C)(c1cc(Br)c(O)c(Br)c1)c1cc(Br)c(O)c(Br)c1` [TBBPA, 2,2-bis(3,5-dibromo-4-hydroxyphenyl)propane], the “induction of adipogenesis (Oil Red O staining)” value (“induction of adipogenesis” for short) in the experiment with 3T3L1 preadipocytes is listed as “induced adipogenesis”. Also, in the experiment on 3T3L1 preadipocytes (co-treatment with CD5477), the “adipogenic action upon co-treatment with PPARγ antagonist CD5477” value is given as “inhibited the adipogenic action”. For the same compound, on ERβ, the “ranking order of estrogenic potency, ERβ” value is “no estrogenic activity at all” and the “agonistic activity toward ERβ” value was “little effect”.
`CC(C)(c1cc(Cl)c(O)c(Cl)c1)c1cc(Cl)c(O)c(Cl)c1` [TCBPA, 2,2-bis(3,5-dichloro-4-hydroxyphenyl)propane]: the “induction of adipogenesis” value in the experiment with 3T3L1 preadipocytes is reported as “induced adipogenesis”. At PPARγ [2], the “activation of human PPARγ (transient transfection)” value was “activators”. Besides, the “activation of PPARγ (luciferase)” value on PPARγ [1] is “partially activating PPARγ”. On ERβ, the “agonistic activity toward ERβ” value is recorded as “partially activated”. In addition, the “activation of zebrafish PPARγ (transient transfection)” value with zebrafish PPARγ is recorded as “activated”. Further, the “AP2 expression level compared with rosiglitazone” value in experiment [3] is given as “much lesser extent”.
On to `CN(CCOc1ccc(CC2SC(=O)NC2=O)cc1)c1ccccn1` (centres unmarked) [rosiglitazone, reference compound], for which the “induction of adipogenesis” value with 3T3L1 preadipocytes is reported as “strongly induced adipogenesis”. Further, in the experiment on zebrafish PPARγ, the “activation of zebrafish PPARγ (transient transfection)” value was “completely inactive”.
